Measured values from US5869512A, “Azole compounds with antimycotic activity for human and veterinary use” (Zambon Group S.p.A, priority 1996, dated 1999).
Converted amounts (≈) assume the structure as drawn. Where two headings read alike, the source gives them in different places.

Experiments:
A. fumigatus [1] = test: In vitro growth inhibition, macromethod of scalar broth dilution (SDB); assay type: cell-based, Aspergillus fumigatus; details: for MIC: Aspergillus fumigatus, 168 h, read-out: MIC (minimum inhibiting concentration)
Excerpt: (§1) A) The activity inhibiting the growth of mycetes has been evaluated by the macromethods of the scalar broth dilution in geometrical progression (M. R. McGinnis and M. G. Rinaldi, "Antimycotic drugs: mechanisms of action, drug resistance, susceptibility testing and assay of activity in biological fluids", in Antibiotic in Laboratory Medicine, Ed. V. Lorian, Baltimore 1991).
(§2) As growing medium Yeast Nitrogen Base broth (YNB) and Sabouraud Dextrose broth (SDB) were employed for yeasts and moulds respectively.
(§3) Fluconazole has been taken as reference compound.

C. neoformans = test: In vitro growth inhibition, macromethod of scalar broth dilution (YNB); assay type: cell-based, Cryptococcus neoformans
Excerpt: as §1, §2, §3

T. mentagrophytes = test: In vitro growth inhibition, macromethod of scalar broth dilution (SDB); assay type: cell-based, Trichophyton mentagrophytes; details: for MIC: Trichophyton mentagrophytes, 168 h, read-out: MIC (minimum inhibiting concentration)
Excerpt: as §1, §2, §3

Candida albicans 1040 = test: In vivo oral antimycotic effectiveness, systemic candidiasis; parameters: species or system mice (Albino Charles River, CD1 strain); details: mice, oral at 0, 4, 24, 48 hours after i.v. infection; for PD50 (medium protective dose) at the 14th day: 20160 min; for ED50: Candida albicans, 1040, in Mus musculus, po, 336 h, read-out: PD50 (medium protective dose) at the 14th day
Experimental: (§4) Albino Charles River mice (CD1 strain) weighing from 23 to 25 g, normally feed with a standard diet and water ad libitum were employed.
(§5) Each animal has been intravenously (for systemic candidiasis, crytpococcosis, aspergillosis), intracranially (for intracranial cryptococcosis) or nasally (for pulmonary aspergillosis) treated with a suspension (0.2 ml containing 2.5×10^7 cells/ml) of the due microorganism in physiological. Right after the injection and after 4, 24 and 48 hours the animals has been orally administered (in 2% Arabic gum) geometrically progressive increasing doses of the compound under test. An infected group has been used as control.
(§6) The mortality monitoring of the mice has been prolonged up to 14 days. The medium protective dose (PD50) has been calculated by the probits analysis (L. Lison--"Statistica applicata alla biologia sperimentale. La programmazione dell'esperimento e l'analisi dei risultati"--Casa Editrice Ambrosiana, 1961) on the basis of the number of animals survived at each concentration.
(§7) Fluconazole and Itraconazole were taken as reference compounds.

C. albicans 1040 = test: In vitro growth inhibition, macromethod of scalar broth dilution (YNB); assay type: cell-based, Candida albicans
Excerpt: as §1, §2, §3

[2] = test system: Cryptococcus neoformans ISM; test: In vivo oral antimycotic effectiveness, intracranial cryptococcosis; parameters: species or system mice (Albino Charles River, CD1 strain); details: 336 h, mice, oral at 0, 4, 24, 48 hours after intracranial infection, read-out: PD50 (medium protective dose) at the 14th day
Experimental: as §4, §5, §6, §7

[3] = test system: Cryptococcus neoformans 3443; test: In vivo oral antimycotic effectiveness, systemic cryptococcosis; parameters: species or system mice (Albino Charles River, CD1 strain); details: 336 h, mice, oral at 0, 4, 24, 48 hours after i.v. infection, read-out: PD50 (medium protective dose) at the 14th day
Experimental: as §4, §5, §6, §7

[4] = test system: Aspergillus fumigatus MOL-4; test: In vivo oral antimycotic effectiveness, pulmonary aspergillosis; parameters: species or system mice (Albino Charles River, CD1 strain); details: MOL4, 336 h, mice, oral at 0, 4, 24, 48 hours after nasal infection, read-out: PD50 (medium protective dose) at the 14th day
Experimental: as §4, §5, §6, §7

[5] = test system: Aspergillus fumigatus MOL-4; test: In vivo oral antimycotic effectiveness, systemic aspergillosis; parameters: species or system mice (Albino Charles River, CD1 strain); details: MOL4, 336 h, mice, oral at 0, 4, 24, 48 hours after i.v. infection, read-out: PD50 (medium protective dose) at the 14th day
Experimental: as §4, §5, §6, §7

A. fumigatus [6] = test: In vitro antimycotic activity, dilution in agar (mycetes); assay type: cell-based, Aspergillus fumigatus; details: casitone agar pH 7, 32° C., 1-10 days
Experimental: (§8) B) The activity inhibiting the growth of yeasts and filamentosous fungi has been evaluated by the method of the dilution in agar. The minimum inhibiting concentration at 50% (MIC50) was measured by incorporating into the growing medium decreasing concentrations of the tested compounds thus yielding scalar concentration on basis 2, from […].
(§9) As growing medium casitone agar buffered at pH=7 (casitone 9 g, glucose 20 g, sodium citrate 10 g, leaven extract 5 g, agar 18 g, potassium biphosphate 0.54 g, sodium biphosphate 3.34 g, distilled water 1,000 ml) was employed.
(§10) For evaluating the activity against the mycetes the growing mediums containing the scalar concentrations of the compounds to be tested were inoculated with 1 μl of a suspension of 5×10^5 of spores/ml (conides or endospores) obtained from duly sporulated coltures. The inoculated growing mediums were incubated at 32° C. and the measurements were effected after 1, 2, 3, 5, 7 and 10 days.
(§11) Fluconazole, Itraconazole and Amphotericin B have been taken as reference compounds.

F. verticilloides = test: as above; assay type: cell-based, Fusarium verticilloides; details: casitone agar pH 7, 32° C., 1-10 days
Experimental: as §8, §9, §10, §11

A. flavusalis = test: as above; assay type: cell-based, Aspergillus flavus; details: casitone agar pH 7, 32° C., 1-10 days
Experimental: as §8, §9, §10, §11

A. corymbifera = test: as above; assay type: cell-based, Absidia corymbifera; details: casitone agar pH 7, 32° C., 1-10 days
Experimental: as §8, §9, §10, §11

A. terreus = test: as above; assay type: cell-based, Aspergillus terreus; details: casitone agar pH 7, 32° C., 1-10 days
Experimental: as §8, §9, §10, §11

R. pusillus = test: as above; assay type: cell-based, Rhyzomucor pusillus; details: casitone agar pH 7, 32° C., 1-10 days
Experimental: as §8, §9, §10, §11

F. proliferatum = test: as above; assay type: cell-based, Fusarium proliferatum; details: casitone agar pH 7, 32° C., 1-10 days
Experimental: as §8, §9, §10, §11

A. niger = test: as above; assay type: cell-based, Aspergillus niger; details: casitone agar pH 7, 32° C., 1-10 days
Experimental: as §8, §9, §10, §11

Pseudoallescheria = test: as above; assay type: cell-based; details: casitone agar pH 7, 32° C., 1-10 days
Experimental: as §8, §9, §10, §11

Mucor = test: as above; assay type: cell-based; details: casitone agar pH 7, 32° C., 1-10 days
Experimental: as §8, §9, §10, §11

Trichoderma = test: as above; assay type: cell-based; details: casitone agar pH 7, 32° C., 1-10 days
Experimental: as §8, §9, §10, §11

Acremonium = test: as above; assay type: cell-based; details: casitone agar pH 7, 32° C., 1-10 days
Experimental: as §8, §9, §10, §11

A. alliaceus = test: as above; assay type: cell-based, Aspergillus alliaceus; details: casitone agar pH 7, 32° C., 1-10 days
Experimental: as §8, §9, §10, §11

[7] = A. fumigatus, SDB, 28° C., 7 days, 2A, 3A, 3B tested as nitrates
[8] = C. neoformans, YNB, 35° C., 48 hours, 2A, 3A, 3B tested as nitrates
[9] = T. mentagrophytes, SDB, 28° C., 7 days, 2A, 3A, 3B tested as nitrates
[10] = C. albicans 1040, YNB, 35° C., 48 hours, 2A, 3A, 3B tested as nitrates
[11] = Cryptococcus neoformans, 48 h, C. neoformans, YNB, 35° C., 48 hours, 2A, 3A, 3B tested as nitrates, read-out: IC50
[12] = Candida albicans, 1040, 48 h, C. albicans 1040, YNB, 35° C., 48 hours, 2A, 3A, 3B tested as nitrates, read-out: IC50

CC(C)(COC(F)(F)C(F)F)C(O)(Cn1cncn1)c1ccc(F)cc1F (single isomer, unassigned; (-)) [Compound 1A, (-) 2-(2,4-difluorophenyl)-4-(1,1,2-tetrafluoroethoxy)-3,3-dimethyl-1-(1H-1,2,4-triazol-1-yl)-2-butanol]
MIC (minimum inhibiting concentration) (A. fumigatus [1]; [7]): 4 µg/mL (≈ 10.1 µM)
IC50 (C. neoformans; [8]): 0.0078 µg/mL (≈ 0.0196 µM)
MIC (minimum inhibiting concentration) (T. mentagrophytes; [9]): 0.125 µg/mL (≈ 0.315 µM)
PD50 (medium protective dose) at the 14th day (Candida albicans 1040): 0.64 mg/kg/os
IC50 (C. albicans 1040; [10]): 0.0078 µg/mL (≈ 0.0196 µM)

C[C@@H](COC(F)(F)C(F)F)[C@](O)(Cn1cncn1)c1ccc(Cl)cc1Cl [Compound 3A, (-) (2R,3S)-2-(2,4-dichlorophenyl)-4-(1,1,2,2-tetrafluoroethoxy)-3-methyl-1-(1H-1,2,4-triazol-1-yl)-2-butanol]
MIC (A. fumigatus [1]; [7]): 2 µg/mL (≈ 4.81 µM)
ED50 [2]: 12.5 mg/kg
ED50 [3]: 5.48 mg/kg
IC50 (C. neoformans; [11]): 0.0078 µg/mL (≈ 0.0187 µM)
ED50 [4]: 6.9 mg/kg
MIC (T. mentagrophytes; [9]): 0.0625 µg/mL (≈ 0.15 µM)
ED50 [5]: 4.5 mg/kg
ED50 (Candida albicans 1040): 0.38 mg/kg
IC50 (C. albicans 1040; [12]): 0.0078 µg/mL (≈ 0.0187 µM)

CCC(C)n1ncn(-c2ccc(N3CCN(c4ccc(OCC5COC(Cn6cncn6)(c6ccc(Cl)cc6Cl)O5)cc4)CC3)cc2)c1=O (stereo not shown) [Itraconazole, reference compound]
ED50 [2]: > 25 mg/kg
ED50 [3]: > 50 mg/kg
ED50 [4]: > 20 mg/kg
ED50 [5]: 10.2 mg/kg
ED50 (Candida albicans 1040): 1.74 mg/kg

OC(Cn1cncn1)(Cn1cncn1)c1ccc(F)cc1F [Fluconazole, reference compound]
MIC (A. fumigatus [1]): > 128 µg/mL
ED50 [2]: 22.3 mg/kg
ED50 [3]: 63.2 mg/kg
IC50 (C. neoformans; Cryptococcus neoformans, 48 h): 2 µg/mL (≈ 6.53 µM)
ED50 [4]: > 100 mg/kg
MIC (T. mentagrophytes): 16 µg/mL (≈ 52.2 µM)
ED50 (Candida albicans 1040): 0.61 mg/kg
IC50 (C. albicans 1040; Candida albicans, 1040, 48 h): 0.5 µg/mL (≈ 1.63 µM)

C[C@@H]1[C@H](O)[C@@H](C)/C=C/C=C/C=C/C=C/C=C/C=C/C=C/[C@H](O[C@@H]2O[C@H](C)[C@@H](O)[C@H](N)[C@@H]2O)C[C@@H]2O[C@](O)(C[C@@H](O)C[C@@H](O)[C@H](O)CC[C@@H](O)C[C@@H](O)CC(=O)O[C@H]1C)C[C@H](O)[C@H]2C(=O)O [Amphotericin B]
MIC50 (A. fumigatus [6]): 0.25 µg/mL (≈ 0.271 µM)
MIC50 (F. verticilloides): 2 µg/mL (≈ 2.16 µM)
MIC50 (A. flavusalis): 0.25 µg/mL (≈ 0.271 µM)
MIC50 (A. corymbifera): 0.06 µg/mL (≈ 0.0649 µM)
MIC50 (A. terreus): 0.25 µg/mL (≈ 0.271 µM)
MIC50 (R. pusillus): 0.06 µg/mL (≈ 0.0649 µM)
MIC50 (F. proliferatum): 1 µg/mL (≈ 1.08 µM)
MIC50 (A. niger): 0.12 µg/mL (≈ 0.13 µM)
MIC50 (Pseudoallescheria): 8 µg/mL (≈ 8.66 µM)
MIC50 (Mucor): 0.03 µg/mL (≈ 0.0325 µM)
MIC50 (Trichoderma): 1 µg/mL (≈ 1.08 µM)
MIC50 (Acremonium): 16 µg/mL (≈ 17.3 µM)
MIC50 (A. alliaceus): 16 µg/mL (≈ 17.3 µM)

C[C@H](COC(F)(F)C(F)F)[C@@](O)(Cn1cncn1)c1ccc(Cl)cc1Cl [Compound 3B, (+) (2S,3R)-2-(2,4-dichlorophenyl)-4-(1,1,2,2-tetrafluoroethoxy)-3-methyl-1-(1H-1,2,4-triazol-1-yl)-2-butanol]
MIC (A. fumigatus [1]; [7]): > 128 µg/mL
IC50 (C. neoformans; [11]): 1 µg/mL (≈ 2.4 µM)
MIC (T. mentagrophytes; [9]): 16 µg/mL (≈ 38.4 µM)
ED50 (Candida albicans 1040): 4.57 mg/kg
IC50 (C. albicans 1040; [12]): 0.25 µg/mL (≈ 0.601 µM)

CC(C)(COC(F)(F)C(F)F)C(O)(Cn1cncn1)c1ccc(F)cc1F (single isomer, unassigned; (+)) [Compound 1B]
MIC (minimum inhibiting concentration) (A. fumigatus [1]; [7]): > 128 µg/mL
IC50 (C. neoformans; [8]): 1 µg/mL (≈ 2.52 µM)
MIC (minimum inhibiting concentration) (T. mentagrophytes; [9]): 32 µg/mL (≈ 80.5 µM)
PD50 (medium protective dose) at the 14th day (Candida albicans 1040): > 2 mg/kg/os
IC50 (C. albicans 1040; [10]): 1 µg/mL (≈ 2.52 µM)

C[C@@H](COC(F)(F)C(F)F)[C@](O)(Cn1cncn1)c1ccc(F)cc1F [Compound 2A, (-) (2R,3S)-2-(2,4-difluorophenyl)-4-(1,1,2,2-tetrafluoroethoxy)-3-methyl-1-(1H-1,2,4-triazol-1-yl)-2-butanol]
MIC (A. fumigatus [1]; [7]): 8 µg/mL (≈ 20.9 µM)
ED50 [2]: 14.6 mg/kg
ED50 [3]: 8.84 mg/kg
IC50 (C. neoformans; [11]): 0.0312 µg/mL (≈ 0.0814 µM)
ED50 [4]: 9.3 mg/kg
MIC (T. mentagrophytes; [9]): 0.25 µg/mL (≈ 0.652 µM)
ED50 [5]: 3.5 mg/kg
ED50 (Candida albicans 1040): 0.32 mg/kg
